Activity calls are given as the source filed them. The rule behind the calls is not given here.
Tested on: CCRIS mutagenicity, Ames/micronucleus/aberration tests
Assay: CCRIS mutagenicity studies
[1] = Test System: AMES SALMONELLA TYPHIMURIUM, Strain/Indicator: TA98, Metabolic Activation: NONE, Method: STANDARD PLATE
[2] = Test System: AMES SALMONELLA TYPHIMURIUM, Strain/Indicator: TA100, Metabolic Activation: NONE, Method: STANDARD PLATE
[3] = Test System: AMES SALMONELLA TYPHIMURIUM, Strain/Indicator: TA1538, Metabolic Activation: RAT, LIVER, S-9, AROCLOR 1254, Method: STANDARD PLATE

Measured: mutagenic call

Cc1cc(-c2ccc(N)c(C)c2)ccc1N
inactive: End Point: IN VITRO CHROMOSOMAL ABERRATIONS, Test System: CHL CELLS, Metabolic Activation: RAT, LIVER, S-9, SODIUM PHENOBARBITAL AND 5,6-BENZOFLAVONE inactive; negative; authors report equivocal results for structural changes at the highest | Test System: AMES SALMONELLA TYPHIMURIUM, Strain/Indicator: SV50, Metabolic Activation: NONE, Method: PREINCUBATION (PRIVAL METHOD) inactive; negative | Test System: AMES SALMONELLA TYPHIMURIUM, Strain/Indicator: SV50, Metabolic Activation: RAT, LIVER, S-9, AROCLOR 1254, Method: STANDARD PLATE inactive; negative | Test System: AMES SALMONELLA TYPHIMURIUM, Strain/Indicator: TA97, Metabolic Activation: HAMSTER, LIVER, S-9, AROCLOR 1254 (10%), Method: PREINCUBATION inactive; negative | Test System: AMES SALMONELLA TYPHIMURIUM, Strain/Indicator: TA97, Metabolic Activation: HAMSTER, LIVER, S-9, AROCLOR 1254, Method: PREINCUBATION inactive; negative | Test System: AMES SALMONELLA TYPHIMURIUM, Strain/Indicator: TA97, Metabolic Activation: NONE, Method: PREINCUBATION inactive; negative | Test System: AMES SALMONELLA TYPHIMURIUM, Strain/Indicator: TA97, Metabolic Activation: RAT, LIVER, S-9, AROCLOR 1254 (10%), Method: PREINCUBATION inactive; negative | Test System: AMES SALMONELLA TYPHIMURIUM, Strain/Indicator: TA97, Metabolic Activation: RAT, LIVER, S-9, AROCLOR 1254, Method: PREINCUBATION inactive; negative | Test System: AMES SALMONELLA TYPHIMURIUM, Strain/Indicator: TA98(1,8-DNP6), Metabolic Activation: NONE, Method: STANDARD PLATE inactive; negative | Test System: AMES SALMONELLA TYPHIMURIUM, Strain/Indicator: TA98, Metabolic Activation: NONE, Method: PREINCUBATION inactive; negative | [1] inactive; negative | Test System: AMES SALMONELLA TYPHIMURIUM, Strain/Indicator: TA100, Metabolic Activation: HAMSTER, LIVER, S-9, AROCLOR 1254 (10%), Method: PREINCUBATION inactive; negative | Test System: AMES SALMONELLA TYPHIMURIUM, Strain/Indicator: TA100, Metabolic Activation: HAMSTER, LIVER, S-9, AROCLOR 1254, Method: PREINCUBATION inactive; negative | Test System: AMES SALMONELLA TYPHIMURIUM, Strain/Indicator: TA100, Metabolic Activation: NONE, Method: PREINCUBATION inactive; negative | [2] inactive; negative | Test System: AMES SALMONELLA TYPHIMURIUM, Strain/Indicator: TA100, Metabolic Activation: RAT LIVER S-9, AROCLOR 1254, Method: PREINCUBATION inactive; negative | Test System: AMES SALMONELLA TYPHIMURIUM, Strain/Indicator: TA100, Metabolic Activation: RAT LIVER S-9, PHENOBARBITAL AND BETA-NAPHTHOFLAVONE, Method: PREINCUBATION inactive; negative | Test System: AMES SALMONELLA TYPHIMURIUM, Strain/Indicator: TA100, Metabolic Activation: RAT, LIVER, S-9, AROCLOR 1254 (10%), Method: PREINCUBATION inactive; negative | Test System: AMES SALMONELLA TYPHIMURIUM, Strain/Indicator: TA100, Metabolic Activation: RAT, LIVER, S-9, AROCLOR 1254, Method: PREINCUBATION inactive; negative | Test System: AMES SALMONELLA TYPHIMURIUM, Strain/Indicator: TA1535, Metabolic Activation: HAMSTER, LIVER, S-9, AROCLOR 1254 (10%), Method: PREINCUBATION inactive; negative | Test System: AMES SALMONELLA TYPHIMURIUM, Strain/Indicator: TA1535, Metabolic Activation: HAMSTER, LIVER, S-9, AROCLOR 1254, Method: PREINCUBATION inactive; negative | Test System: AMES SALMONELLA TYPHIMURIUM, Strain/Indicator: TA1535, Metabolic Activation: NONE, Method: PREINCUBATION inactive; negative | Test System: AMES SALMONELLA TYPHIMURIUM, Strain/Indicator: TA1535, Metabolic Activation: RAT, LIVER, S-9, AROCLOR 1254 (10%), Method: PREINCUBATION inactive; negative | Test System: AMES SALMONELLA TYPHIMURIUM, Strain/Indicator: TA1535, Metabolic Activation: RAT, LIVER, S-9, AROCLOR 1254, Method: PREINCUBATION inactive; negative | Test System: AMES SALMONELLA TYPHIMURIUM, Strain/Indicator: TA1537, Metabolic Activation: RAT LIVER S-9, PHENOBARBITAL AND BETA-NAPHTHOFLAVONE, Method: PREINCUBATION inactive; negative | Test System: Ames Salmonella typhimurium, Strain/Indicator: TA102, Metabolic Activation: None, Method: Preincubation inactive; negative | Test System: Ames Salmonella typhimurium, Strain/Indicator: TA102, Metabolic Activation: Rat, Liver, S-9, Aroclor 1254, Method: Preincubation inactive; negative
active: End Point: IN VITRO CHROMOSOMAL ABERRATIONS, Test System: CHINESE HAMSTER OVARY CELLS, Metabolic Activation: NONE active; positive | End Point: IN VITRO CHROMOSOMAL ABERRATIONS, Test System: CHINESE HAMSTER OVARY CELLS, Metabolic Activation: RAT, LIVER, S-9, AROCLOR 1254 active; positive | End Point: IN VITRO CHROMOSOMAL ABERRATIONS, Test System: CHL CELLS, Metabolic Activation: NONE active; positive (structural changes) | Test System: AMES SALMONELLA TYPHIMURIUM, Strain/Indicator: TA98(1,8-DNP6), Metabolic Activation: S-9, Method: STANDARD PLATE active; positive | Test System: AMES SALMONELLA TYPHIMURIUM, Strain/Indicator: TA98, Metabolic Activation: HAMSTER, LIVER, S-9, AROCLOR 1254 (10%), Method: PREINCUBATION active; positive | Test System: AMES SALMONELLA TYPHIMURIUM, Strain/Indicator: TA98, Metabolic Activation: HAMSTER, LIVER, S-9, AROCLOR 1254, Method: PREINCUBATION active; positive | Test System: AMES SALMONELLA TYPHIMURIUM, Strain/Indicator: TA98, Metabolic Activation: RAT LIVER S-9, AROCLOR 1254, Method: PREINCUBATION active; positive | Test System: AMES SALMONELLA TYPHIMURIUM, Strain/Indicator: TA98, Metabolic Activation: RAT LIVER S-9, PHENOBARBITAL AND BETA-NAPHTHOFLAVONE, Method: PREINCUBATION active; positive | Test System: AMES SALMONELLA TYPHIMURIUM, Strain/Indicator: TA98, Metabolic Activation: RAT, LIVER, S-9, AROCLOR 1254 (10%), Method: PREINCUBATION active; positive | Test System: AMES SALMONELLA TYPHIMURIUM, Strain/Indicator: TA98, Metabolic Activation: RAT, LIVER, S-9, AROCLOR 1254, Method: PREINCUBATION active; positive | Test System: AMES SALMONELLA TYPHIMURIUM, Strain/Indicator: TA98, Metabolic Activation: RAT, LIVER, S-9, AROCLOR 1254, Method: STANDARD PLATE active; positive | Test System: AMES SALMONELLA TYPHIMURIUM, Strain/Indicator: TA98, Metabolic Activation: S-9, Method: STANDARD PLATE active; positive | Test System: AMES SALMONELLA TYPHIMURIUM, Strain/Indicator: TA100, Metabolic Activation: S-9, Method: STANDARD PLATE active; positive | Test System: AMES SALMONELLA TYPHIMURIUM, Strain/Indicator: TA1538, Metabolic Activation: HAMSTER, LIVER, S-9, Method: STANDARD PLATE active; positive | [3] active; positive | Test System: Ames Salmonella typhimurium, Strain/Indicator: TA98, Metabolic Activation: Rat, Liver, S-9, Sodium phenobarbitone, Method: Preincubation active; positive, test conducted under both aerobic and anaerobic conditions. | Test System: Ames Salmonella typhimurium, Strain/Indicator: TA1538, Metabolic Activation: Rat, Liver, S-9, Sodium phenobarbitone, Method: Preincubation active; positive, test conducted under both aerobic and anaerobic conditions. | Test System: MOUSE LYMPHOMA, Strain/Indicator: L5178Y (TK+/TK-), Metabolic Activation: NONE, Method: SUSPENSION/PLATE active; positive | Test System: MOUSE LYMPHOMA, Strain/Indicator: L5178Y (TK+/TK-), Metabolic Activation: RAT, LIVER, S-9, AROCLOR 1254, Method: SUSPENSION/PLATE active; positive

CS(=O)CCC(=O)N1[C@@H](c2ccccc2O)SC[C@H]1C(=O)O (some centres undefined)
inactive: [1] inactive; negative | [2] inactive; negative | Test System: AMES SALMONELLA TYPHIMURIUM, Strain/Indicator: TA1535, Metabolic Activation: NONE, Method: STANDARD PLATE inactive; negative | Test System: AMES SALMONELLA TYPHIMURIUM, Strain/Indicator: TA1537, Metabolic Activation: NONE, Method: STANDARD PLATE inactive; negative | Test System: AMES SALMONELLA TYPHIMURIUM, Strain/Indicator: TA1538, Metabolic Activation: NONE, Method: STANDARD PLATE inactive; negative | Test System: E. COLI, Strain/Indicator: WP2, Metabolic Activation: NONE, Method: STANDARD PLATE inactive; negative | Test System: E. COLI, Strain/Indicator: WP2 UVRA, Metabolic Activation: NONE, Method: STANDARD PLATE inactive; negative

c1cnc2c(c1)-c1ncsc1CC2
inactive: [3] inactive; negative
